In US9809573B2, “Substituted pyridine derivatives useful as GSK-3 inhibitors” (priority 2013, dated 2017):
Like-named read-outs stand apart in the source and are kept apart here.

Assays:
GSK3α = GSK3α (Homo sapiens, UniProt P49840); experiment: biochemical
Description: (§1) The kinase assay was performed in V-bottom 384-well plates. […] The reaction was incubated at room temperature for 20 hours and terminated by adding 45 μl of 35 mM EDTA to each sample. The reaction mixture was analyzed on the Caliper LabChip3000 (Caliper, Hopkinton, Mass.) by electrophoretic separation of the unphosphorylated substrate and phosphorylated product. […] Compounds were dissolved at 10 mM in dimethylsulfoxide (DMSO) and evaluated at eleven concentrations. IC50 values were derived by non-linear regression analysis.

pTau = pTau assay (method not described); assay type: cell-based
GSK3β = GSK3β (Homo sapiens, UniProt P49841); experiment: GSK3β kinase assay (Caliper LabChip3000, fluoresceinated peptide substrate); assay type: biochemical
Description: as §1

[1] = second value of the cell, 250 pM enzyme, 20 uM ATP, 20 hours at room temperature, read-out: GSK3β/α (nM): GSK3α IC50
[2] = first value of the cell, 250 pM enzyme, 20 uM ATP, 20 hours at room temperature, read-out: GSK3β/α (nM): GSK3β IC50
[3] = read-out: GSK3β/α (nM): GSK3α IC50, second value of the cell, 250 pM enzyme, 20 uM ATP, 20 hours at room temperature
[4] = read-out: GSK3β/α (nM): GSK3β IC50, first value of the cell, 250 pM enzyme, 20 uM ATP, 20 hours at room temperature

Sequence of GSK3α (P49840 whole entry, species assumed): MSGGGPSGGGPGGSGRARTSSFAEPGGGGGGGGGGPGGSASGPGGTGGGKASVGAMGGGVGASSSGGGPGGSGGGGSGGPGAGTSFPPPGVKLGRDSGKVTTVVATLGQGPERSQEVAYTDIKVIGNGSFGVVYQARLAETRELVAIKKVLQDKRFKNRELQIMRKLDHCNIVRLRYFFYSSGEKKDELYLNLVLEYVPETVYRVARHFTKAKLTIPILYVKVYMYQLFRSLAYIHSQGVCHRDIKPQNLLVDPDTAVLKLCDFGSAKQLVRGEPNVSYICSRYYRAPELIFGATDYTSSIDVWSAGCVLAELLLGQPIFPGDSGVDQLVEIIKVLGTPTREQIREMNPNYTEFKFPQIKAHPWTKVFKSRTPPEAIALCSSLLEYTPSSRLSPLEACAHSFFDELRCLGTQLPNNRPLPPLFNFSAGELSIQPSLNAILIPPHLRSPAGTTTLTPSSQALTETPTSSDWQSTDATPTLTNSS
Sequence of GSK3β (P49841 whole entry, species assumed): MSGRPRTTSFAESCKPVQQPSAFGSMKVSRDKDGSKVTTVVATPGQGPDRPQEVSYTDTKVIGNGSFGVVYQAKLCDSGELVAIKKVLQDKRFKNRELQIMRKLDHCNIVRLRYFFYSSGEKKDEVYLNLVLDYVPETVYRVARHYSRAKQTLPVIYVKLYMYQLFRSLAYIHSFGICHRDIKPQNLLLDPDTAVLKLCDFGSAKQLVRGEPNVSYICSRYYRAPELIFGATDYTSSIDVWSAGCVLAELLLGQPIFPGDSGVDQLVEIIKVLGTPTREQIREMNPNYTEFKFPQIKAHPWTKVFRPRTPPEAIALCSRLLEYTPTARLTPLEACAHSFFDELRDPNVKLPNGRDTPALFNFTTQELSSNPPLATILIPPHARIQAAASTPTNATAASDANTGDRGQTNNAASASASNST

Compound | IC50 (GSK3α; [1]) [nM] | IC50 (pTau; read-out: pTau) [nM] | IC50 (GSK3β; [2]) [nM] | IC50 (GSK3α) [nM] | IC50 (pTau; read-out: pTau (nM)) [nM] | IC50 (GSK3β) [nM] | IC50 (GSK3α; [3]) [nM] | IC50 (GSK3β; [4]) [nM]
O=C(Nc1cnccc1-c1ccccc1)c1ccnc(NC(=O)[C@@H]2C[C@H]2c2ccccc2)c1 (relative stereo) [Example 99, 2-((Trans)-2-phenylcyclopropanecarboxamido)-N-(4-phenylpyridin-3-yl)isonicotinamide] | 24 | 4500 | 1.8 | – | – | – | – | –
O=C(Nc1cnccc1-c1ccccc1)c1ccnc(NC(=O)[C@@H]2CC[C@@H](O)C2)c1 (relative stereo) [Example 230, 2-((1,3-Trans)-3-hydroxycyclopentanecarboxamido)-N-(4-phenylpyridin-3-yl)isonicotinamide] | – | – | – | 0.68 | 73 | 2.5 | – | –
C[C@@H]1CN(c2ccncc2NC(=O)c2ccnc(NC(=O)C3CC3)c2)CCO1 (single isomer, unassigned) [Example 77] | – | – | – | 2.7 | 220 | 8.8 | – | –
C[C@H]1CN(c2ccncc2NC(=O)c2ccnc(NC(=O)C3CC3)c2)CCO1 (single isomer, unassigned) [Example 78] | – | – | – | 0.35 | 18 | 0.99 | – | –
O=C(Nc1cnccc1-c1ccc(Cl)cc1)c1ccnc(NC(=O)C2CC(F)C2)c1 (single isomer, unassigned) [Example 222, N-(4-(4-chlorophenyl)pyridin-3-yl)-2-((1,3-trans)-3-fluorocyclobutanecarboxamido)isonicotinamide] | – | 37 | – | – | – | – | 1.3 | 1.7
O=C(Nc1cnccc1-c1ccc(Cl)cc1)c1ccnc(NC(=O)C2CC(F)C2)c1 (single isomer, unassigned) [Example 223, N-(4-(4-chlorophenyl)pyridin-3-yl)-2-((1,3-cis)-3-fluorocyclobutanecarboxamido)isonicotinamide] | – | 150 | – | – | – | – | 3.1 | 6.9
CC(=O)Nc1ccc(NC(=O)c2ccnc(NC(=O)C3CC3)c2)cn1 [Example 4, N-(6-Acetamidopyridin-3-yl)-2-(cyclopropanecarboxamido)isonicotinamide] | 180 | 7200 | 370 | – | – | – | – | –
O=C(Nc1cnc2ccccc2c1)c1ccnc(NC(=O)C2CC2)c1 [Example 5, 2-(Cyclopropanecarboxamido)-N-(quinolin-3-yl)isonicotinamide] | 230 | ≥ 10000 | 570 | – | – | – | – | –
O=C(Nc1cncc2ccccc12)c1ccnc(NC(=O)C2CC2)c1 [Example 6, 2-(Cyclopropanecarboxamido)-N-(isoquinolin-4-yl)isonicotinamide] | 2.7 | 190 | 7.2 | – | – | – | – | –
Cc1cc(NC(=O)c2ccnc(NC(=O)C3CC3)c2)cnc1F [Example 8, 2-(Cyclopropanecarboxamido)-N-(6-fluoro-5-methylpyridin-3-yl)isonicotinamide] | 24 | 1800 | 48 | – | – | – | – | –
Cc1ccncc1NC(=O)c1ccnc(NC(=O)C2CC2)c1 [Example 9, 2-(Cyclopropanecarboxamido)-N-(4-methylpyridin-3-yl)isonicotinamide] | 22 | 1200 | – | – | – | 30 | – | –
O=C(Nc1ccc(-c2ccccc2)nc1)c1ccnc(NC(=O)C2CC2)c1 [Example 10, 2-(Cyclopropanecarboxamido)-N-(6-phenylpyridin-3-yl)isonicotinamide] | 64 | 1800 | 16 | – | – | – | – | –
Cc1ccc(NC(=O)c2ccnc(NC(=O)C3CC3)c2)cn1 [Example 11, 2-(Cyclopropanecarboxamido)-N-(6-methylpyridin-3-yl)isonicotinamide] | 15 | 2200 | 30 | – | – | – | – | –
O=C(Nc1cncc(F)c1)c1ccnc(NC(=O)C2CC2)c1 [Example 12, 2-(Cyclopropanecarboxamido)-N-(5-fluoropyridin-3-yl)isonicotinamide] | 16 | 1400 | 33 | – | – | – | – | –
COc1cncc(NC(=O)c2ccnc(NC(=O)C3CC3)c2)c1 [Example 13, 2-(Cyclopropanecarboxamido)-N-(5-methoxypyridin-3-yl)isonicotinamide] | 7.3 | 550 | 13 | – | – | – | – | –
CC(=O)c1ccncc1NC(=O)c1ccnc(NC(=O)C2CC2)c1 [Example 14, N-(4-acetylpyridin-3-yl)-2-(cyclopropanecarboxamido)isonicotinamide] | 0.54 | 76 | – | – | – | 0.85 | – | –
O=C(Nc1cncc(Br)c1)c1ccnc(NC(=O)C2CC2)c1 [Example 15, 2-(Cyclopropanecarboxamido)-N-(5-bromopyridin-3-yl)isonicotinamide] | 11 | 610 | 16 | – | – | – | – | –

Compound | IC50 (GSK3α; [1]) [nM] | IC50 (pTau; read-out: pTau) [nM] | IC50 (GSK3β; [2]) [nM] | IC50 (GSK3α) [nM] | IC50 (pTau; read-out: pTau (nM)) [nM] | IC50 (GSK3β) [nM] | IC50 (GSK3α; [3]) [nM] | IC50 (GSK3β; [4]) [nM]
CC(C)(O)c1ccncc1NC(=O)c1ccnc(NC(=O)C2CC2)c1 [Example 16, 2-(Cyclopropanecarboxamido)-N-(4-(2-hydroxypropan-2-yl)pyridin-3-yl)isonicotinamide] | – | – | – | 0.2 | 2.8 | 0.11 | – | –
CC(O)c1ccncc1NC(=O)c1ccnc(NC(=O)C2CC2)c1 (stereo not drawn) [Example 17, 2-(Cyclopropanecarboxamido)-N-(4-(1-hydroxyethyl)pyridin-3-yl)isonicotinamide] | 1.4 | 35 | – | – | – | 0.25 | – | –
O=C(Nc1cnccc1I)c1ccnc(NC(=O)C2CC2)c1 [Example 19, 2-(Cyclopropanecarboxamido)-N-(4-iodopyridin-3-yl)isonicotinamide] | 0.96 | 35 | 1.4 | – | – | – | – | –
O=C(Nc1cncc(C2CC2)c1)c1ccnc(NC(=O)C2CC2)c1 [Example 22, 2-(Cyclopropanecarboxamido)-N-(5-cyclopropylpyridin-3-yl)isonicotinamide] | 2.4 | 250 | 7.1 | – | – | – | – | –
O=C(Nc1cnccc1C(O)C(F)(F)F)c1ccnc(NC(=O)C2CC2)c1 (stereo not drawn) [Example 23, 2-(Cyclopropanecarboxamido)-N-(4-(2,2,2-trifluoro-1-hydroxyethyl)pyridin-3-yl)isonicotinamide] | – | – | – | 2.4 | 48 | 5.8 | – | –
O=C(Nc1cnccc1C(=O)C(F)(F)F)c1ccnc(NC(=O)C2CC2)c1 [Example 24, 2-(Cyclopropanecarboxamido)-N-(4-(2,2,2-trifluoroacetyl)pyridin-3-yl)isonicotinamide] | – | – | – | 1.2 | 110 | 0.95 | – | –
O=C(Nc1cnccc1N1CCOCC1)c1ccnc(NC(=O)C2CC2)c1 [Example 30, 2-(Cyclopropanecarboxamido)-N-(4-morpholinopyridin-3-yl)isonicotinamide] | 0.54 | 23 | – | – | – | 1 | – | –
O=C(Nc1cnccc1C1CCC1)c1ccnc(NC(=O)C2CC2)c1 [Example 41, N-(4-cyclobutylpyridin-3-yl)-2-(cyclopropanecarboxamido)isonicotinamide] | 3 | 380 | – | – | – | 7.5 | – | –
Cc1cc(-c2ccncc2NC(=O)c2ccnc(NC(=O)C3CC3)c2)cs1 [Example 43, 2-(Cyclopropanecarboxamido)-N-(4-(5-methylthiophen-3-yl)pyridin-3-yl)isonicotinamide] | 0.85 | 49 | 2.8 | – | – | – | – | –
O=C(Nc1cnccc1N1CCC(F)(F)CC1)c1ccnc(NC(=O)C2CC2)c1 [Example 45, 2-(Cyclopropanecarboxamido)-N-(4-(4,4-difluoropiperidin-1-yl)pyridin-3-yl)isonicotinamide] | – | – | – | 0.19 | 5.1 | 0.22 | – | –
O=C(Nc1cnccc1N1CCCCC1)c1ccnc(NC(=O)C2CC2)c1 [Example 50, 2-(Cyclopropanecarboxamido)-N-(4-(piperidin-1-yl)pyridin-3-yl)isonicotinamide] | 0.35 | 23 | – | – | – | 0.99 | – | –
C[C@@H]1COCCN1c1ccncc1NC(=O)c1ccnc(NC(=O)C2CC2)c1 [Example 52, (R)-2-(cyclopropanecarboxamido)-N-(4-(3-methylmorpholino)pyridin-3-yl)isonicotinamide] | 0.21 | 12 | – | – | – | 0.49 | – | –
O=C(Nc1cnccc1N1CCCCCC1)c1ccnc(NC(=O)C2CC2)c1 [Example 53, N-(4-(azepan-1-yl)pyridin-3-yl)-2-(cyclopropanecarboxamido)isonicotinamide] | 14 | 1200 | 37 | – | – | – | – | –
C[C@H]1COCCN1c1ccncc1NC(=O)c1ccnc(NC(=O)C2CC2)c1 [Example 54, (S)-2-(cyclopropanecarboxamido)-N-(4-(3-methylmorpholino)pyridin-3-yl)isonicotinamide] | 0.07 | 2 | – | – | – | 0.06 | – | –
O=C(Nc1cnccc1-c1ccc(C(F)(F)F)cc1)c1ccnc(NC(=O)C2CC2)c1 [Example 56, 2-(Cyclopropanecarboxamido)-N-(4-(4-(trifluoromethyl)phenyl)pyridin-3-yl)isonicotinamide] | 8.4 | 230 | 13 | – | – | – | – | –
O=C(Nc1c(-c2ccccc2)ccnc1Cl)c1ccnc(NC(=O)C2CC2)c1 [Example 59, N-(2-chloro-4-phenylpyridin-3-yl)-2-(cyclopropanecarboxamido)isonicotinamide] | 70 | 8200 | 78 | – | – | – | – | –
